Measurements reported in PMC6396489 (Cell Communication and Signaling : CCS, 2019).

Test system: T1, Shp1 and Src
T1 construct: expressed in transfected cells; host or cells: NIH3T3
Experiment: Co-immunoprecipitation of Src with Shp1 in NIH3T3 cells
Format: cell-based
Details: 50 μM for 5 min
Procedure: NIH3T3 cells were washed with ice-cold PBS and lysed on ice in buffer containing 20 mM Tris-HCl, pH 8.0, 150 mM NaCl, 1% Triton-X100, 5 mM Na3VO4, 30 mM β-glycerophosphate and 10 mM NaF supplemented with the protease inhibitor cocktail and processed for SDS-PAGE. Westen blotting was performed with the relevant antibodies. For immunoprecipitation experiments, 2 μg of an anti-Shp1 antibody or 5 μg of an anti-Src antibody were added to 1 mg of NIH3T3 cell lysates at 4 °C and incubated overnight. The samples were then incubated with A or G protein agarose beads for 1 h at 4 °C. Western blotting was performed from the washed and denatured complexes.

Structure (SMILES): O=P(O)(O)OC1C(O)C(O)C(OP(=O)(O)OCC(O)CO)C(O)C1O (stereo not drawn) [GroPIns4P, glycerophosphoinositol 4-phosphate]
- increase in the interaction between Shp1-C455S and Src (NIH3T3 over-expressing Shp1-C455S): 2.2 fold
- change in Shp1-Src complex formation (NIH3T3 over-expressing Shp1 S118A/R138E/S140A): no change
- increase of Shp1-Src interaction compared with the control (NIH3T3 over-expressing Shp1 WT): about 1.6 fold
